Measured values taken from EPA's CvTdb concentration-time database.

Key:
[1] = tested on: Mouse; test: concentration in plasma after dosing; settings: 10 min; dosed: 2-Hydroxy-4-methoxybenzophenone; 50 mg/kg; iv; Male; B6C3F1
[2] = tested on: Rat; test: concentration in plasma after dosing; settings: dosed: 2-Hydroxy-4-methoxybenzophenone, 8 mg/kg, iv, Male, F344
[3] = tested on: Mouse; test: concentration in plasma after dosing; settings: dosed: 2-Hydroxy-4-methoxybenzophenone, 100 mg/kg, oral, Female, B6C3F1
[4] = tested on: Rat; test: concentration in plasma after dosing; settings: 5 min; dosed: Nitrite; 40 mg/kg; oral; Female; Harlan Sprague-Dawley
[5] = tested on: Rat; test: concentration in plasma after dosing; settings: 2 min; dosed: Nitrite; 40 mg/kg; oral; Female; F344
[6] = tested on: Rat; test: concentration in plasma after dosing; settings: 20 min; dosed: Nitrite; 20 mg/kg; iv; Male; F344
[7] = tested on: Rat; test: concentration in plasma after dosing; settings: dosed: 678-39-7, 40 mg/kg, iv, Female, Harlan Sprague-Dawley
[8] = tested on: Rat; test: concentration in liver after dosing; settings: 0.5 h; dosed: Fluorotelomer alcohol 8+2; 80 mg/kg; oral; Female; Harlan Sprague Dawley
[9] = tested on: Rat; test: concentration in liver after dosing; settings: 6 h; dosed: Perfluorooctanoic acid; 12 mg/kg; oral; Male; Harlan Sprague Dawley
[10] = tested on: Rat; test: concentration in plasma after dosing; settings: dosed: 678-39-7, 40 mg/kg, iv, Male, F344
[11] = tested on: Rat; test: concentration in liver after dosing; settings: 6 h; dosed: Fluorotelomer alcohol 8+2; 24 mg/kg; oral; Male; Harlan Sprague Dawley
[12] = tested on: Rat; test: concentration in liver after dosing; settings: 3 h; dosed: Perfluorooctanoic acid; 12 mg/kg; oral; Male; Harlan Sprague Dawley
[13] = tested on: Rat; test: concentration in kidney after dosing; settings: 6 h; dosed: Perfluorooctanoic acid; 12 mg/kg; oral; Male; Harlan Sprague Dawley
[14] = tested on: Rat; test: concentration in plasma after dosing; settings: dosed: 678-39-7, 40 mg/kg, iv, Male, F344; remark: listed apart in the source
[15] = tested on: Rat; test: concentration in brain after dosing; settings: 3 h; dosed: Perfluorooctanoic acid; 12 mg/kg; oral; Male; Harlan Sprague Dawley
[16] = tested on: Rat; test: concentration in plasma after dosing; settings: dosed: 678-39-7, 12 mg/kg, iv, Male, F344
[17] = tested on: Rat; test: concentration in plasma after dosing; settings: dosed: 678-39-7, 40 mg/kg, iv, Male, F344; remark: listed apart in the source
[18] = tested on: Rat; test: concentration in liver after dosing; settings: 24 h; dosed: Perfluorooctanoic acid; 12 mg/kg; oral; Male; Harlan Sprague Dawley
[19] = tested on: Rat; test: concentration in plasma after dosing; settings: dosed: Potassium Perfluorobutane Sulfonate, 4 mg/kg, oral, Male, Harlan Sprague Dawley
[20] = tested on: Rat; test: concentration in kidney after dosing; settings: 6 h; dosed: Potassium Perfluorobutane Sulfonate; 20 mg/kg; oral; Female; Harlan Sprague Dawley
[21] = tested on: Rat; test: concentration in plasma after dosing; settings: 1.5 h; dosed: Potassium Perfluorobutane Sulfonate; 20 mg/kg; oral; Male; Harlan Sprague Dawley
[22] = tested on: Rat; test: concentration in liver after dosing; settings: 1 h; dosed: Potassium Perfluorobutane Sulfonate; 20 mg/kg; oral; Female; Harlan Sprague Dawley
[23] = tested on: Rat; test: concentration in plasma after dosing; settings: 0.5 h; dosed: Potassium Perfluorobutane Sulfonate; 4 mg/kg; iv; Male; F344
[24] = tested on: Rat; test: concentration in kidney after dosing; settings: 3 h; dosed: Potassium Perfluorobutane Sulfonate; 20 mg/kg; oral; Male; Harlan Sprague Dawley
[25] = tested on: rat; test: concentration in kidney after dosing (ugEq/g tissue); settings: dosed: benzo[a]pyrene, iv, male, Wistar
[26] = tested on: rat; test: concentration in blood after dosing; settings: dosed: methanol, male, CDF(F344)/CrlBR

COc1ccc(C(=O)c2ccccc2)c(O)c1 [2-Hydroxy-4-methoxybenzophenone]
Settings | concentration in plasma [µg/mL]
[1] | 14

concentration in plasma [µg/mL]
Settings | 0.25 h | 2 h | 2.5 min | 3 h | 10 min
[2] | 1.95 | 0.0846 | – | – | –
[3] | 0.081 | 0.00458 | 0.0153 | 0.00505 | 0.0373

O=N[O-] [Nitrite]
Settings | concentration in plasma [µg/mL]
[4] | 4.1
[5] | 1.9
[6] | 7.6

O=C(O)C(F)(F)C(F)(F)C(F)(F)C(F)(F)C(F)(F)C(F)(F)C(F)(F)F [Perfluorooctanoic acid]
Settings | concentration in plasma
[7], 1 h | 2620 ng/mL
[7], 24 h | 86.7 ng/mL
[10], 0.25 h | 970 ng/mL
[10], 6 h | 1760 ng/mL
[14], 0.25 h | 465 ng/mL
[14], 0.5 h | 220000 ng/mL
[14], 6 h | 1540 ng/mL
[14], 24 h | 1640 ng/mL
[16], 0.75 h | 295 ng/mL
[16], 12 h | 505 ng/mL
[17], 0.25 h | 264 µg/mL
[17], 6 h | 108 µg/mL

Settings | concentration in brain [ng/g] | concentration in kidney [ng/g] | concentration in liver [ng/g]
[8] | – | – | 579
[9] | – | – | 63400
[11] | – | – | 1350
[12] | – | – | 41100
[13] | – | 43100 | –
[15] | 913 | – | –
[18] | – | – | 60800

O=S(=O)([O-])C(F)(F)C(F)(F)C(F)(F)C(F)(F)F.[K+] [Potassium Perfluorobutane Sulfonate]
[19]
Settings | concentration in plasma [ng/mL]
3 h | 11700
5 min | 398

Settings | concentration in kidney [ng/g] | concentration in liver [ng/g] | concentration in plasma
[20] | 3360 | – | –
[21] | – | – | 58.5 µg/mL
[22] | – | 30300 | –
[23] | – | – | 12500 ng/mL
[24] | 27100 | – | –

c1ccc2c(c1)cc1ccc3cccc4ccc2c1c34 [benzo[a]pyrene]
concentration in kidney, [25]
Settings | 2 mg/kg | 6 mg/kg | 15 mg/kg
0.5 h | 4.64 | 7.09 | 20.1
0.75 h | 4.02 | 7.57 | 16.8
1 h | 2.67 | 6.12 | 15.1
1.5 h | 1.31 | 2.25 | 13.6
2 h | 0.21 | 0.8 | 5.37
3 h | 0.23 | 0.2 | 1.77
4 h | 0.07 | 0.15 | 0.8
5 h | 0.06 | 0.09 | 0.36
5 min | 7 | 12.4 | 30.8
6 h | 0.08 | 0.11 | 0.35
8 h | 0.08 | 0.09 | 0.25
10 min | 7.09 | 15.9 | 25.2
20 min | 7.68 | 11.7 | 22.5
24 h | – | – | 0.05
32 h | – | – | 0.01

CO [methanol]
[26], 200 ppm, inhalation, duration: 6 hr
Settings | concentration in blood [µg/mL]
0 h | 4.78
0.5 h | 2.95
1 h | 1.99
1.5 h | 3.16
2 h | 2.1
3 h | 0.949
4.5 h | 1.73
6 h | 0.396
8 h | 0.704
10 h | 0.528

[26], 100 mg/kg, iv
Settings | concentration in blood [µg/mL]
0.3747 h | 90.9
0.621 h | 80.5
1.114 h | 70.3
1.606 h | 61.3
2.08 h | 60.6
3.027 h | 39.2
4.505 h | 26.1
6.002 h | 12.2
